In patent US10000471B2, “Pyrazole P38 map kinase inhibitors” (Respivert Limited, priority 2010, dated 2018):

Experiments:
[1] = target: T1, p38 MAPKα isoform (MAPK14) (Homo sapiens, UniProt Q16539); assay: Enzyme inhibition assay (FRET, Z-LYTE), p38 MAPKα via MAPKAP-K2 activation; assay type: biochemical; details: read-out: Enzyme Inhibition IC50 p38α
T1 construct: purchased Invitrogen
Protocol: (§1) The enzyme inhibitory activities of compounds disclosed herein were determined by fluorescence resonance energy transfer (FRET) using synthetic peptides labelled with both donor and acceptor fluorophores (Z-LYTE, Invitrogen Ltd., Paisley, UK). Recombinant, phosphorylated p38 MAPKγ (MAPK12:Invitrogen) was diluted in HEPES buffer, mixed with the test compound at the desired final concentrations and incubated for 2 hr at RT. The FRET peptide (2 μM) and ATP (100 μM) were added to the enzyme/compound mixture and incubated for 1 hr. Development reagent (protease) was added for 1 hr prior to detection in a fluorescence microplate reader (Varioskan® Flash, ThermoFisher Scientific). The site-specific protease cleaves non-phosphorylated peptide only and eliminates the FRET signal. Phosphorylation levels of each reaction were calculated using the ratio of coumarin emission (donor) over fluorescein emission (acceptor) for which high ratios indicate high phosphorylation and low ratios indicate low phosphorylation levels. The percentage inhibition of each reaction was calculated relative to non-inhibited control and the 50% inhibitory concentration (IC50 value) then calculated from the concentration-response curve.
For the p38 MAPKα isoform (MAPK14: Invitrogen), enzyme activity was evaluated indirectly by determining the level of activation/phosphorylation of the down-stream molecule, MAPKAP-K2. The p38 MAPKα protein was mixed with the test compound for 2 hr at RT. […] Development reagent was then added and the mixture incubated for 1 hr before detection by fluorescence completed the assay protocol.

p38 MAPKγ (MAPK12) = target: T2, p38 MAPKγ (MAPK12) (Homo sapiens, UniProt P53778); assay: Enzyme inhibition assay (FRET, Z-LYTE), p38 MAPKγ; assay type: biochemical; details: read-out: Enzyme Inhibition IC50 p38γ
T2 construct: purchased Invitrogen
T2 sequence (P53778 1-367): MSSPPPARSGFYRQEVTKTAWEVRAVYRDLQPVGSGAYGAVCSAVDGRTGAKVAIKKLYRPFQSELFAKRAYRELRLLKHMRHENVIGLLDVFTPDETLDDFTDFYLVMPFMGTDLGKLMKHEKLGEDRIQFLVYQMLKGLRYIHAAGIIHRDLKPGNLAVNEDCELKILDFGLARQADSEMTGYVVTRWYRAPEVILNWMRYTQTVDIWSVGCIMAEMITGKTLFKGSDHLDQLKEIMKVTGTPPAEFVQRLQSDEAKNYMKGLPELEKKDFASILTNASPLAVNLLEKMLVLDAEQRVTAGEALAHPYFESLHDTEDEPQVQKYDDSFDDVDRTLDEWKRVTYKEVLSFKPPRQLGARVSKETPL
Protocol: as §1

[2] = system: TNFα release in THP-1 cells; assay: LPS-induced TNFα release in THP-1 cells; assay type: cell-based, human; details: Homo sapiens
Protocol: LPS-Induced TNFα Release in THP-1 Cells
THP-1 cells, a human monocytic cell line, were stimulated with 3 μg/mL of LPS (from E. Coli; 0111:B4, Sigma) for 4 hr and the supernatant collected for determination of the TNFα concentration by sandwich ELISA (Duo-set, R&D systems). The inhibition of TNFα production was calculated at each concentration by comparison with vehicle control. The 50% inhibitory concentration (IC50) was determined from the resultant concentration-response curve.

[3] = system: TNFα release in d-U937 cells; assay: LPS-induced TNFα release in d-U937 cells; assay type: cell-based, human; details: Homo sapiens, dU937, relative to 10 μg/mL BIRB796, read-out: LPS/TNFα REC50 d-U937
Protocol: (§2) LPS-Induced TNFα/IL-8 Release in d-U937 Cells
(§3) U937 cells, a human monocytic cell line, were differentiated to macrophage-type cells by incubation with phorbol myristate acetate (PMA; 100 ng/ml) for 48 to 72 hr. Cells were pre-incubated with final concentrations of test compound for 2 hr and were then stimulated with 0.1 μg/mL of LPS (from E. Coli: O111:B4, Sigma) for 4 hr. The supernatant was collected for determination of TNFα and IL-8 concentrations by sandwich ELISA (Duo-set, R&D systems). The inhibition of TNFα production was calculated as a percentage of that achieved by 10 μg/mL of BIRB796 at each concentration of test compound by comparison against vehicle control. The relative 50% effective concentration (REC50) was determined from the resultant concentration-response curve. The inhibition of IL-8 production was calculated at each concentration of test compound by comparison with vehicle control. The 50% inhibitory concentration (IC50) was determined from the resultant concentration-response curve.

[4] = system: IL-8 release in d-U937 cells; assay: LPS-induced IL-8 release in d-U937 cells; assay type: cell-based, human; details: Homo sapiens, dU937
Protocol: as §2, §3

[5] = system: ICAM-1 induction in BEAS2B cells; assay: Poly I:C-induced ICAM-1 induction in BEAS2B cells; assay type: cell-based, human; details: Homo sapiens, BEAS-2B, read-out: PolyIC/ICAM1 IC50 BEAS2B
Protocol: Poly I:C-Induced ICAM-1 Induction in BEAS2B Cells
Poly I:C (1 μg/mL) (Invivogene Ltd., San Diego, Calif.) was transfected into BEAS2B cells (human bronchial epithelial cells, ATCC) with Oligofectamine (Invitrogen, Carlsbad, Calif.). Cells were pre-incubated with final concentrations of test compounds for 2 hr and the level of ICAM1 expression on the cell surface was determined by cell-based ELISA. At a time point 18 hr after poly I:C transfection, cells were fixed with 4% formaldehyde in PBS and then endogenous peroxidase was quenched by the addition of 0.1% sodium azide and 1% hydrogen peroxide. Cells were washed with wash-buffer (0.1% Tween in PBS: PBS-Tween). and after blocking the wells with 5% milk in PBS-Tween for 1 hr, the cells were incubated with anti-human ICAM-1 antibody (Cell Signaling Technology, Danvers, Mass.) in 1% BSA PBS overnight at 4° C. The cells were washed with PBS-Tween and incubated with the secondary antibody (HRP-conjugated anti-rabbit IgG, Dako Ltd., Glostrup, Denmark). The ICAM-1 signal was detected by adding substrate and reading the absorbance at 450 nm against a reference wavelength of 655 nm using a spectrophotometer. The cells were then washed with PBS-Tween and total cell numbers in each well were determined by reading absorbance at 595 nm after Crystal Violet staining and elution by 1% SDS solution. The measured OD 450-655 readings were corrected for cell number by dividing with the OD595 reading in each well. The inhibition of ICAM-1 expression was calculated at each concentration of test compound by comparison with vehicle control. The 50% inhibitory concentration (IC50) was determined from the resultant concentration-response curve.

[6] = system: Differentiated U937 cells; assay: Cell viability MTT assay; assay type: cell-based, human; details: negative = apparent increase in viability; for MTT Assay (Viability) 4 h d-U937, percentage loss of cell viability: 4 hr in 5% FCS; for MTT Assay (Viability) 24 h d-U937, percentage loss of cell viability: 24 h in 10% FCS
Protocol: Differentiated U937 cells were pre-incubated with each test compound under two protocols: the first for 4 hr in 5% FCS and the second in 10% FCS for 24 h. The supernatant was replaced with 200 μL of new media and 10 μL of MTT stock solution (5 mg/mL) was added to each well. After incubation for 1 hr the media were removed, 200 μL of DMSO was added to each well and the plates were shaken lightly for 1 hr prior to reading the absorbance at 550 nm. The percentage loss of cell viability was calculated for each well relative to vehicle (0.5% DMSO) treatment. Consequently an apparent increase in cell viability for drug treatment relative to vehicle is tabulated as a negative percentage.

T1 sequence (Q16539 whole entry, canonical isoform): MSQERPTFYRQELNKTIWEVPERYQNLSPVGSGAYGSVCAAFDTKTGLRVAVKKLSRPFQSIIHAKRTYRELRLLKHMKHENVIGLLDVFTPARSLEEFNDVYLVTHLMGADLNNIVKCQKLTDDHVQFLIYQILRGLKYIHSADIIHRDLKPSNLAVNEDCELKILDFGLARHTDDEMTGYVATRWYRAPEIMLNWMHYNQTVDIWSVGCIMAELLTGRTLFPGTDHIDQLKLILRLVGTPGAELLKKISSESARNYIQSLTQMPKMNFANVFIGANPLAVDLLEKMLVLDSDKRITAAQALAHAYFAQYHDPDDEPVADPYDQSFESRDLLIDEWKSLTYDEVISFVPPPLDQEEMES

SMILES | IC50 [1] | IC50 (p38 MAPKγ (MAPK12)) | IC50 [2] | EC50 [3] | IC50 [4] | IC50 [5] | MTT Assay (Viability) 4 h d-U937, percentage loss of cell viability [6] | MTT Assay (Viability) 24 h d-U937, percentage loss of cell viability [6]
COc1ccc(-n2nc(C(C)(C)C)cc2NC(=O)Nc2ccc(Oc3ccnc(NC(=O)NC4CC4)c3)c(C#N)c2Cl)cc1 [Example 78, 1-(3-tert-butyl-1-(4-methoxyphenyl)-1H-pyrazol-5-yl)-3-(2-chloro-3-cyano-4-(2-(3-cyclopropylureido)pyridin-4-yloxy)phenyl) urea] | 84.6 nM | 96.2 nM | 1.4 nM | 1.6 nM | 2.2 nM | 2.2 nM | 1.0% | 20.9%
COc1ccc(-n2nc(C(C)(C)C)cc2NC(=O)Nc2ccc(Oc3ccnc(NC(=O)NCCCn4ccnc4)c3)c(Cl)c2Cl)cc1 [Example 69, 1-(3-(1H-imidazol-1-yl)propyl)-3-(4-(4-(3-(3-tert-butyl-1-(4-methoxyphenyl)-1H-pyrazol-5-yl)ureido)-2,3-dichlorophenoxy)pyridin-2-yl)urea] | 15.2 nM | 68.3 nM | 1.4 nM | 0.6 nM | 4.2 nM | 22.2 nM | 8.8% | 75.5%
CNC(=O)Nc1cc(Oc2ccc(NC(=O)Nc3cc(C(C)(C)C)nn3-c3ccc(C)cc3)c3ncccc23)ccn1 [Example 56, 1-(3-tert-butyl-1-p-tolyl-1H-pyrazol-5-yl)-3-(5-(2-(3-methylureido)pyridin-4-yloxy)quinolin-8-yl)urea] | 52.4 nM | 194 nM | 8.6 nM | 0.9 nM | 4.6 nM | 12.3 nM | −25.5% | −28.0%
CNC(=O)Nc1cc(Oc2ccc(NC(=O)Nc3cc(C(C)(C)C)nn3-c3ccc(O)cc3)c(Cl)c2Cl)ccn1 [Example 51, 1-(3-tert-butyl-1-(4-hydroxyphenyl)-1H-pyrazol-5-yl)-3-(2,3-dichloro-4-(2-(3-methylureido)pyridin-4-yloxy)phenyl)urea] | 34.2 nM | 174 nM | 0.7 nM | 1.2 nM | 6.8 nM | 0.7 nM | −17.3% | 57.3%
COCC(=O)Nc1cc(Oc2ccc(NC(=O)Nc3cc(C(C)(C)C)nn3-c3ccc(OC)cc3)c(Cl)c2Cl)ccn1 [Example 44, N-(4-(4-(3-(3-tert-butyl-1-(4-methoxyphenyl)-1H-pyrazol-5-yl)ureido)-2,3-dichlorophenoxy)pyridin-2-yl)-2-methoxyacetamide] | 7.9 nM | 48.4 nM | 1.8 nM | 2.2 nM | 20.7 nM | 0.9 nM | −25.9% | 87.1%
COCC(=O)Nc1cc(Oc2ccc(NC(=O)Nc3cc(C(C)(C)C)nn3-c3ccc(C)cc3)c3[nH]ncc23)ccn1 [Example 7, N-(4-(7-(3-(3-tert-Butyl-1-p-tolyl-1H-pyrazol-5-yl)ureido)-1H-indazol-4-yloxy)pyridin-2-yl)-2-methoxyacetamide] | 1.3 nM | 36.6 nM | 111 nM | 112 nM | 124 nM | 150 nM | −2.0% | 64.5%
COCC(=O)Nc1cc(Oc2ccc(NC(=O)Nc3cc(C(C)(C)C)nn3-c3ccc(C)cc3)c(Cl)c2F)ccn1 [Example 35, N-(4-(4-(3-(3-tert-butyl-1-p-tolyl-1H-pyrazol-5-yl)ureido)-3-chloro-2-fluorophenoxy)pyridin-2-yl)-2-methoxyacetamide] | 24.7 nM | 134 nM | 0.6 nM | 0.5 nM | 2.8 nM | 1.5 nM | −0.2% | 73.1%
COCC(=O)Nc1cc(COc2ccc(NC(=O)Nc3cc(C(C)(C)C)nn3-c3ccc(C)cc3)c(Cl)c2Cl)ccn1 [Example 14, N-(4-((4-(3-(3-tert-Butyl-1-p-tolyl-1H-pyrazol-5-yl)ureido)-2,3-dichlorophenoxy)methyl)pyridin-2-yl)-2-methoxyacetamide] | 17 nM | 33.1 nM | 6.1 nM | 40.8 nM | 70.2 nM | 32.2 nM | −7.9% | 49.6%
CNC(=O)Nc1nccc(Oc2ccc(NC(=O)Nc3cc(C(C)(C)C)nn3-c3ccc(C)cc3)c(Cl)c2Cl)n1 [Example 96, 1-(3-tert-butyl-1-p-tolyl-1H-pyrazol-5-yl)-3-(2,3-dichloro-4-(2-(3-methylureido)pyrimidin-4-yloxy)phenyl)urea] | 21.2 nM | 152 nM | 2.6 nM | 0.2 nM | 1.9 nM | 30 nM | −16.1% | −13.4%
